Results: patent publication US20230110378A1, “MONOBACTAM COMPOUND AND USE THEREOF” (EVOPOINT BIOSCIENCES CO., LTD., priority 2019, published 2023)
Values after ≈ are worked out from the molar mass of the structure shown.

Legend:
Assay in all cases: Minimum inhibitory concentration (broth microdilution, CLSI)
Assay type in all cases: cell-based
[1] = tested on: Klebsiella pneumoniae HDBKP 30006; details: HDBKP30006
Method: (§1) 103 bacterial strains used for the minimum inhibitory concentration test were frozen in a −80° C. ULT freezer and thawed 2 days before use. A small amount of frozen microorganism bacteria were scraped using a sterile inoculating loop, streaked onto a suitable solid culture dish for inoculation, and then cultured for about 20 h at 35 t 2° C. in a normal incubator. • Proteus mirabilis HDBPM 40: MA, normal atmospheric environment • The remaining 102 strains of bacteria: TSA, normal atmospheric environment
(§2) 5-10 colonies with similar morphology were picked from the culture dish using a sterile inoculating loop and then re-streaked onto a corresponding solid culture dish. Then the dish was incubated in a normal incubator at 35 t 2° C. for about 20 h.
(§3) 5-10 single microbial colonies were picked from the solid culture dish, resuspended in 500 μL of sterile normal saline (0.9% NaCl), and adjusted to an OD600 of about 0.15 with a spectrophotometer.
(§4) The bacteria were then diluted 300-fold with 1.02×CAMHB to an inoculation concentration of 2×10^5 CFU/mL.
(§5) • There were a total of 3 assay plate patterns, one of which was used for each assay. • 8 rows of the assay plate (rows A-H) were for 8 test compounds, respectively. The highest test concentration of the compounds was 16, 32 or 64 μg/mL, and each compound was diluted 2-fold. • Growth control (GC): a medium containing microbial inoculum (1.02×CAMHB) and dimethylsulfoxide (DMSO) but no compound.
(§6) The test and reference compounds were dissolved in DMSO or H2O to prepare 6.4 mg/mL stock solutions. The stock solutions were diluted to prepare standby solutions with certain concentrations, and the volumes of the standby solutions were determined according to the experimental design. Corresponding volumes of the standby solutions were transferred to the starting wells of a dilution plate (A1-H1), and half the starting-well volume of DMSO to the other wells. Each compound was diluted 2-fold sequentially from column 1 to column 11 (e.g., transferring 30 μL of DMSO to columns 2-12 first, then pipetting 30 μL of the compounds from column 1 to column 2 and mixing them well, then pipetting 30 μL of the compounds from column 2 to column 3 and mixing them well, then pipetting 30 μL of the compounds from column 3 to column 4 and mixing them well, and so on to column 11).
(§7) 1 or 2 μL of the compounds and DMSO were transferred from the compound plate to corresponding wells of the assay plates.
(§8) 98 μL of corresponding bacterial inocula were added to the assay plates.
(§9) After addition, the assay plates were covered with sterile covers. The mixtures in the assay plates were centrifuged in a centrifuge at 800 rpm for 30 s, mixed well on a microplate shaker at 400 rpm for 1 min, and incubated in a normal incubator at 35 t 2° C. for 20-24 h.
(§10) The assay plates were placed on a plate reading device, and the speculum was adjusted to observe and record the growth condition of bacteria in each well. In the mean time, each assay plate was photographed with QCount system.
(§11) The minimum inhibitory concentration of each compound was recorded by reference to guidelines from the Clinical and Laboratory Standards Institute.
(§12) The minimum inhibitory concentrations of the compounds against experimental strains were tested in this study by reference to the medium microdilution method as indicated by the Clinical and Laboratory Standards Institute. Compounds were diluted two-fold in 96-well plates from the highest detection concentration of 16, 32 or 64 μg/mL. The bacterial inocula in the assay plates were thawed from corresponding medium plates and diluted in 1.02×CAMHB, while growth controls (GC wells) were set up in the assay plates. The minimum inhibitory concentration of each compound against different bacteria was observed and recorded after the assay plates were incubated in a normal incubator at 35 t 2° C. for about 20 h. The minimum inhibitory concentration values for the different compounds are listed in the list below.

[2] = tested on: Pseudomonas aeruginosa HDBPA 5679; details: HDBPA5679
Method: as §1, §2, §3, §4, §5, §6, §7, §8, §9, §10, §11, §12

[3] = tested on: Escherichia coli HDBEC 30048; details: HDBEC30048
Method: as §1, §2, §3, §4, §5, §6, §7, §8, §9, §10, §11, §12

[4] = tested on: Enterobacter cloacae HDBECL 30030; details: HDBECL30030
Method: as §1, §2, §3, §4, §5, §6, §7, §8, §9, §10, §11, §12

[5] = tested on: Klebsiella pneumoniae HDBKP 9249; details: HDBKP9249
Method: as §1, §2, §3, §4, §5, §6, §7, §8, §9, §10, §11, §12

[6] = tested on: Escherichia coli HDBEC 30016; details: HDBEC30016
Method: as §1, §2, §3, §4, §5, §6, §7, §8, §9, §10, §11, §12

[7] = tested on: Proteus mirabilis HDBPM 40; details: HDBPM40
Method: as §1, §2, §3, §4, §5, §6, §7, §8, §9, §10, §11, §12

[8] = tested on: Escherichia coli HDBEC 30008; details: HDBEC30008
Method: as §1, §2, §3, §4, §5, §6, §7, §8, §9, §10, §11, §12

[9] = tested on: Klebsiella pneumoniae HDBKP 9153; details: HDBKP9153
Method: as §1, §2, §3, §4, §5, §6, §7, §8, §9, §10, §11, §12

SMILES | MIC [1] | MIC [2] | MIC [3] | MIC [4] | MIC [5] | MIC [6] | MIC [7] | MIC [8] | MIC [9]
C[n+]1cc(-c2ncc(C(=O)NC[C@@H]3[C@H](NC(=O)/C(=N\OC(C)(C)C(=O)O)c4nsc(N)n4)C(=O)N3S(=O)(=O)O)s2)cn1CCCN [Compound I-16] | > 16 µg/mL | > 16 µg/mL | > 16 µg/mL | > 16 µg/mL | 8 to 16 µg/mL | > 16 µg/mL | < 4 µg/mL | 8 to 16 µg/mL | > 16 µg/mL
Nc1nc(/C(=N/OC2(C(=O)O)CC2)C(=O)N[C@H]2C(=O)N(S(=O)(=O)O)[C@H]2CNC(=O)c2cc([C@@H]3CCN(C(=O)c4cc(=O)c(O)cn4O)C3)no2)cs1 [Compound I-17] | > 16 µg/mL | < 4 µg/mL | < 4 µg/mL | < 4 µg/mL | < 4 µg/mL | 4 to 8 µg/mL (≈ 5.22 to 10.4 µM) | < 4 µg/mL | < 4 µg/mL | < 4 µg/mL
CC(C)(O/N=C(\C(=O)N[C@H]1C(=O)N(S(=O)(=O)O)[C@H]1CNC(=O)c1cc([C@@H]2CCN(C(=O)c3ccc(O)c(O)c3Cl)C2)no1)c1csc(N)n1)C(=O)O [Compound I-18] | > 16 µg/mL | 4 to 8 µg/mL (≈ 5.09 to 10.2 µM) | < 4 µg/mL | < 4 µg/mL | > 16 µg/mL | 8 to 16 µg/mL (≈ 10.2 to 20.4 µM) | < 4 µg/mL | < 4 µg/mL | 4 to 8 µg/mL (≈ 5.09 to 10.2 µM)
CC(C)(O/N=C(\C(=O)N[C@H]1C(=O)N(S(=O)(=O)O)[C@H]1CNC(=O)c1cc([C@@H]2CCN(C(=O)c3cc(Cl)c(O)c(O)c3Cl)C2)no1)c1csc(N)n1)C(=O)O [Compound I-19] | > 16 µg/mL | 4 to 8 µg/mL (≈ 4.88 to 9.76 µM) | < 4 µg/mL | < 4 µg/mL | 8 to 16 µg/mL (≈ 9.76 to 19.5 µM) | 4 to 8 µg/mL (≈ 4.88 to 9.76 µM) | < 4 µg/mL | < 4 µg/mL | < 4 µg/mL
CC(C)(O/N=C(\C(=O)N[C@H]1C(=O)N(S(=O)(=O)O)[C@H]1CNC(=O)c1cc([C@@H]2CC[N+](C)(CCNC(=O)c3ccc(O)c(O)c3Cl)C2)no1)c1csc(N)n1)C(=O)O (stereo partly drawn) [Compound I-20] | > 16 µg/mL | 8 to 16 µg/mL | 8 to 16 µg/mL | < 4 µg/mL | > 16 µg/mL | > 16 µg/mL | < 4 µg/mL | < 4 µg/mL | 8 to 16 µg/mL
CC(C)(O/N=C(\C(=O)N[C@H]1C(=O)N(S(=O)(=O)O)[C@H]1CNC(=O)c1cc([C@@H]2CCN(C(=O)c3cc(=O)c(O)cn3O)C2)no1)c1csc(N)n1)C(=O)O [Compound I-21] | > 16 µg/mL | < 4 µg/mL | < 4 µg/mL | < 4 µg/mL | > 16 µg/mL | > 16 µg/mL | < 4 µg/mL | < 4 µg/mL | < 4 µg/mL
Nc1nc(/C(=N/OC2(C(=O)O)CC2)C(=O)N[C@@H]2C(=O)N(S(=O)(=O)O)[C@@H]2CNC(=O)c2cc([C@@H]3CCN(C(=O)c4cc(=O)c(O)cn4O)C3)no2)cs1 [Compound I-22] | > 16 µg/mL | < 4 µg/mL | < 4 µg/mL | < 4 µg/mL | 4 to 8 µg/mL (≈ 5.22 to 10.4 µM) | 4 to 8 µg/mL (≈ 5.22 to 10.4 µM) | < 4 µg/mL | < 4 µg/mL | < 4 µg/mL
Nc1nc(/C(=N/OC2(C(=O)O)CC2)C(=O)N[C@@H]2C(=O)N(S(=O)(=O)O)[C@@H]2CNC(=O)c2cc([C@@H]3CCN(C(=O)c4ccc(O)c(O)c4Cl)C3)no2)cs1 [Compound I-23] | 8 to 16 µg/mL (≈ 10.2 to 20.4 µM) | < 4 µg/mL | < 4 µg/mL | < 4 µg/mL | < 4 µg/mL | < 4 µg/mL | < 4 µg/mL | < 4 µg/mL | < 4 µg/mL
C[N+]1(CCNC(=O)c2ccc(O)c(O)c2Cl)CC[C@@H](c2cc(C(=O)NC[C@@H]3[C@H](NC(=O)/C(=N\OC4(C(=O)O)CC4)c4csc(N)n4)C(=O)N3S(=O)(=O)O)on2)C1 (stereo partly drawn) [Compound I-24] | 8 to 16 µg/mL | < 4 µg/mL | < 4 µg/mL | < 4 µg/mL | < 4 µg/mL | 8 to 16 µg/mL | < 4 µg/mL | < 4 µg/mL | < 4 µg/mL
Nc1nc(/C(=N/OC2(C(=O)O)CC2)C(=O)N[C@@H]2C(=O)N(S(=O)(=O)O)[C@@H]2CNC(=O)c2cc([C@H]3CCN(C(=O)c4cc(=O)c(O)cn4O)C3)no2)cs1 [Compound I-25] | > 16 µg/mL | < 4 µg/mL | < 4 µg/mL | < 4 µg/mL | 4 to 8 µg/mL (≈ 5.22 to 10.4 µM) | 4 to 8 µg/mL (≈ 5.22 to 10.4 µM) | < 4 µg/mL | < 4 µg/mL | < 4 µg/mL
CC(C)(O/N=C(\C(=O)N[C@H]1C(=O)N(S(=O)(=O)O)[C@H]1CNC(=O)c1cc([C@@H]2CCN(C(=O)c3cc(=O)c(O)cn3O)C2)no1)c1nc(N)sc1Cl)C(=O)O [Compound I-26] | > 16 µg/mL | > 16 µg/mL | > 16 µg/mL | > 16 µg/mL | > 16 µg/mL | > 16 µg/mL | 4 to 8 µg/mL (≈ 4.99 to 9.97 µM) | > 16 µg/mL | > 16 µg/mL
CC(C)(O/N=C(\C(=O)N[C@@H]1C(=O)N(S(=O)(=O)O)[C@@H]1CNC(=O)c1cnc([C@@H]2CC[N+](C)(CCNC(=O)c3ccc(O)c(O)c3Cl)C2)s1)c1csc(N)n1)C(=O)O (stereo partly drawn) [Compound I-34] | 4 to 8 µg/mL | < 4 µg/mL | < 4 µg/mL | < 4 µg/mL | 8 to 16 µg/mL | < 4 µg/mL | < 4 µg/mL | < 4 µg/mL | < 4 µg/mL
CC(C)(O/N=C(\C(=O)N[C@@H]1C(=O)N(S(=O)(=O)O)[C@@H]1CNC(=O)c1cc([C@@H]2CCN(CCNc3ccc(O)c(O)c3Cl)C2)no1)c1csc(N)n1)C(=O)O [Compound I-36] | 8 to 16 µg/mL (≈ 10 to 20 µM) | < 4 µg/mL | < 4 µg/mL | < 4 µg/mL | < 4 µg/mL | 4 to 8 µg/mL (≈ 5 to 10 µM) | < 4 µg/mL | < 4 µg/mL | < 4 µg/mL
